Source: ChEMBL document CHEMBL1159133, “A cembranolide diterpene farnesyl protein transferase inhibitor from the marine soft coral Lobophytum cristagalli” (Bioorg Med Chem Lett, 1996)
pIC50, pKi: −log10 of the molar value.

Columns and labels:
[1] = target: T1, Protein farnesyltransferase (Homo sapiens, UniProt P49354+P49356); experiment: Inhibition of recombinant human farnesyl protein transferase; format: protein-complex assay
[2] = target: T1, Protein farnesyltransferase; experiment: Percent inhibition of H-Ras processing in COS cells at 5.3 uM; format: cell-based
[3] = target: T1, Protein farnesyltransferase; experiment: Kinetic parameter for inhibition of farnesyl protein transferase; format: protein-complex assay
[4] = target: Geranylgeranyl transferase type I (Homo sapiens, UniProt P49354+P53609); experiment: Inhibitory activity against recombinant human Geranylgeranyl transferase type I; format: protein-complex assay

`C=C1C(=O)O[C@H]2[C@H]1[C@@H](OC(C)=O)C/C(C)=C/CC/C(C)=C/CC[C@@]1(C)O[C@H]21` gave a pIC50 [1] of 6.82, an inhibition [2] of 26% and a pKi [3] of 6.77. For the same compound, the pIC50 [4] was 5.28.
